Assay results taken from paper PMC11385386 (Nature Communications, 2024).

Target: IDH1^R132H (Homo sapiens, UniProt O75874, R132H)
Assay: Affinity of IDH1 R132H for NADPH
Type: binding

Sequence of IDH1^R132H (O75874 whole entry R132H): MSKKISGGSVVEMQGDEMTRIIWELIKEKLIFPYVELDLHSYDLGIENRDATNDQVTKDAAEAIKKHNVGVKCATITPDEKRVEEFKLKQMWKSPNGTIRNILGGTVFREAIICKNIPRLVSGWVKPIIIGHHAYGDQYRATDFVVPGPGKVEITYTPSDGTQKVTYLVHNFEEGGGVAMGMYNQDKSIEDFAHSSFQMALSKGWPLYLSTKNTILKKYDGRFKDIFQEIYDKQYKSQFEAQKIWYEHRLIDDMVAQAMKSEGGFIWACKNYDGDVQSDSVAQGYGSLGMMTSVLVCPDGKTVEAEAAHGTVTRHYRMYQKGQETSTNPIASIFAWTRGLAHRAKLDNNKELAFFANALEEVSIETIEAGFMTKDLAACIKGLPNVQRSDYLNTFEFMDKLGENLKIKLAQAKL

Kd: ~50 nM
SMILES: NC(=O)C1=CN([C@@H]2O[C@H](COP(=O)(O)OP(=O)(O)OC[C@H]3O[C@@H](n4cnc5c(N)ncnc54)[C@H](OP(=O)(O)O)[C@@H]3O)[C@@H](O)[C@H]2O)C=CC1 [NADPH]
